# How the values were obtained:
# Assay type in all cases: cell-based
# [1] = system: human erythrocyte chloride channels; test: In vitro human erythrocyte chloride conductance; conditions: read-out: IC50 value - the concentration at which 50% of the chloride channels are blocked
# Description: In Vitro Human Erythrocyte Chloride Conductance
# The chloride conductance was measured according to the proceeding as described in the “Biology” paragraph of the specification of WO 00/24707. The parameter calculated from these studies is the IC50 value—the concentration at which 50% of the chloride channels are blocked.
# [2] = molecular target: T1, Volume Regulated Anion Channel (VRAC) (Homo sapiens, UniProt Q8IWT6); test: Volume Regulated Anion Channel (VRAC) effect, whole cell patch clamp in HEK293 cells; conditions: VRAC activated by swelling in hypotonic (75% tonicity) extracellular solution, read-out: KD value (time dependent block of VRAC current)
# T1 construct: endogenous in cells; host or cells: HEK293
# T1 sequence (Q8IWT6 1-810): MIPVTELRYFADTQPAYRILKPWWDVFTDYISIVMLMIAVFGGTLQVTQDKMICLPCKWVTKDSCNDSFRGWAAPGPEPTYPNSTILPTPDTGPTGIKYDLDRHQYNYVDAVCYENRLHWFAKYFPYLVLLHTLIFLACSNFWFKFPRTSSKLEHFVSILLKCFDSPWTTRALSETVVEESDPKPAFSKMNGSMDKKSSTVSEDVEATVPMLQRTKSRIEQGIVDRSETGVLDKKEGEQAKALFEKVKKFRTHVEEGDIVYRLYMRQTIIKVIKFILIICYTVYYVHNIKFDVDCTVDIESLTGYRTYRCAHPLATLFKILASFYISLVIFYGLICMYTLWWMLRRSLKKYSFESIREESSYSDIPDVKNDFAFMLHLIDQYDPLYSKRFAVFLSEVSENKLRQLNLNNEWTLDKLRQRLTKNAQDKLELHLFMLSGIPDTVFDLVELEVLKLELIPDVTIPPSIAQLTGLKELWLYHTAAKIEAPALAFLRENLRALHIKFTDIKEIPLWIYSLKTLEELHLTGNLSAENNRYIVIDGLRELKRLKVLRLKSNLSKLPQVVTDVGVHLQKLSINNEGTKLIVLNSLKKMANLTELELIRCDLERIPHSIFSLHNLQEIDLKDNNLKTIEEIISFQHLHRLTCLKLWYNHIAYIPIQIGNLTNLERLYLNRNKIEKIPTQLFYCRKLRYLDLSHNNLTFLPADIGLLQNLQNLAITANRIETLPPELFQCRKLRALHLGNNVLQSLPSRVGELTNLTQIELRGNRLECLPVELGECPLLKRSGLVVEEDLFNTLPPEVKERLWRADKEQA
# Description: Volume Regulated Anion Channel (VRAC) Effect
# The activity on the Volume Regulated Anion Channel (VRAC) was tested by the whole cell patch clamp technique using Human Embryonic Kidney cells (HEK293) as described in Helix et al, J Membr Biol. 2003 196(2):83-94, In short, VRAC was activated by swelling of the cell in hypotonic (75% tonicity) extracellular salt solution and the anion current elicited by voltage ramps was measured vs. time. After stabilization of the current the compound to be tested was added to the extracellular solution and the time dependent block was followed for calculation of the KD value.
# human BK channels = molecular target: T2, human BK channels (Homo sapiens, UniProt Q12791); test: Human BK channel screening, two-electrode voltage clamp in Xenopus oocytes; conditions: 0.3 μM test compound, Xenopus oocytes expressing human BK channels
# T2 construct: expressed in transfected cells; host or cells: Xenopus oocytes
# T2 sequence (Q12791 whole entry): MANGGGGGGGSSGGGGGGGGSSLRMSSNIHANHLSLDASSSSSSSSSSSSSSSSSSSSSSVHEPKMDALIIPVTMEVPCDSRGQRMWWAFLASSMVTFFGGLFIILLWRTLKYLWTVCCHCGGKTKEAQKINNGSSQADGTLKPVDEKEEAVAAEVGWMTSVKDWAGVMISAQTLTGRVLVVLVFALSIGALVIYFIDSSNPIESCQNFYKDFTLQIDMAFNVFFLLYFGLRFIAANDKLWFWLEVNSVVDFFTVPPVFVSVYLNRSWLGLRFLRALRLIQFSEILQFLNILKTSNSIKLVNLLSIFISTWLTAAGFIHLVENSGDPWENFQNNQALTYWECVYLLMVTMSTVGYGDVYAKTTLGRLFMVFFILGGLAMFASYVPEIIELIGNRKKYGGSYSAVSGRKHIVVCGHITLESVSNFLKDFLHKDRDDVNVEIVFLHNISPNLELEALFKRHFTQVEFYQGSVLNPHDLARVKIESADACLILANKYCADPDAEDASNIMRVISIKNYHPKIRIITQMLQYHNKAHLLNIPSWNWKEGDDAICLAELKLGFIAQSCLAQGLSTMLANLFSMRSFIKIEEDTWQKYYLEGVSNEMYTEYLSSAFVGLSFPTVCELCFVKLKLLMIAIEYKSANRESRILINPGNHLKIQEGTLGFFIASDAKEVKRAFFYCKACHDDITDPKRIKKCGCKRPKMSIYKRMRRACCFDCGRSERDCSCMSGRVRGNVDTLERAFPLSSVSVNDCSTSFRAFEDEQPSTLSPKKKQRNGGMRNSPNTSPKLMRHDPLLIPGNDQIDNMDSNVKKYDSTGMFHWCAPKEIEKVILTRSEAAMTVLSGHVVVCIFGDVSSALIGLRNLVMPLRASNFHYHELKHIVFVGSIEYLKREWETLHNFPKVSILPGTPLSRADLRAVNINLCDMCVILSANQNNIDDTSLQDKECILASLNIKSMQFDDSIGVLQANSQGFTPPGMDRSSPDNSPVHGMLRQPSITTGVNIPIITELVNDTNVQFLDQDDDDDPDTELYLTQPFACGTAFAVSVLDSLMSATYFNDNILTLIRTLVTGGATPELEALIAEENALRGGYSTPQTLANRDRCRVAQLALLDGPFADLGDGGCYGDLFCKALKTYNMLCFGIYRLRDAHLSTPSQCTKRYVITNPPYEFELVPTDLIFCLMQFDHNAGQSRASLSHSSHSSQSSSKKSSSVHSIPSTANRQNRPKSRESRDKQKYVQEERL
# Description: Human BK Channel Screening
# The influence of a compound on the membrane currents was determined electrophysiologically on Xenopus Oocytes capable of expressing human BK channels, and the current through the channels was recorded using the classical two-electrode voltage clamp technique.
# The first compound of Example 4, N-(3,5-Difluoro-phenyl)-N′-[3-(5-oxo-4,5-dihydro-[1,2,4]oxadiazol-3-yl)-4′-trifluoromethyl-biphenyl-4-yl]urea, was subjected to this determination at a concentrations of 0.3 μM of test compound, and it caused an increase of BK current relative to the basal current of more than 200%.
smiles,measurement,setting,value
"O=C(Nc1cc(F)cc(F)c1)Nc1ccc(-c2ccc(C(F)(F)F)cc2)cc1-c1noc(=O)[nH]1 [first compound of Example 4, N-(3,5-Difluoro-phenyl)-N′-[3-(5-oxo-4,5-dihydro-[1,2,4]oxadiazol-3-yl)-4′-trifluoromethyl-biphenyl-4-yl]urea]",IC50,[1],280 nM
same,Kd,[2],230 nM
same,increase of BK current relative to the basal current,human BK channels,more than 200%

# Reference: patent publication US7985761B2, “Diphenylurea derivatives and their use as chloride channel blockers or BKCa channel modulators” (Neurosearch A/S, priority 2006, dated 2011)
